Results reported in US20080125432A1 (Devgen NV, priority 2004, published 2008).

With Cc1nc(Nc2ccncc2)sc1C(=O)N[C@H]1CCC[C@@H]1OCc1ccccc1 [Compound 153, 4-methyl-2-(pyridin-4-ylamino)-thiazole-5-carboxylic acid ((1S,2S)-2-benzyloxycyclopent-1-yl) amide] the melting point was 78.1 to 81.7 °C.
With COc1cccc(Nc2nc(C)c(C(=O)N[C@H]3CCC[C@@H]3OCc3ccccc3)s2)c1 [Compound 133, 2-(3-methoxy-phenylamino)-4-methyl-thiazole-5-carboxylic acid ((1S,2S)-2-benzyloxycyclopent-1-yl) amide] the melting point was 152.8 to 155.9 °C.
Compound COc1ccccc1Nc1nc(C)c(C(=O)Cc2ccccc2)s1 [Compound 79, 1-[2-(2-methoxy-phenylamino)-4-methyl-thiazol-5-yl]-2-phenyl-ethanone] has a melting point of 131.7 to 140.6 °C.
Compound Cc1nc(Nc2ccc(N3CCOCC3)cc2)sc1C(=O)N[C@H]1CCC[C@@H]1OCc1ccccc1 [Compound 92, 4-methyl-2-(4-morpholin-4-yl-phenylamino)-thiazole-5-carboxylic acid ((1S,2S)-2-benzyloxycyclopent-1-yl) amide] has a melting point of 192.5 to 194.9 °C.
In the case of COc1ccccc1Nc1nc(C)c(C(=O)NCc2ccc(-c3ccccc3)cc2)s1 [Compound 145, 2-(2-methoxy-phenylamino)-4-methyl-thiazole-5-carboxylic acid (biphenyl-4-ylmethyl)-amide], the melting point is reported as 189.6 to 191.2 °C.
Work on COc1ccccc1Nc1nc(C)c(C(=O)N2CCC(c3ccc(C)cc3)CC2)s1 [Compound 168, [2-(2-methoxy-phenylamino)-4-methyl-thiazol-5-yl]-[4-p-tolyl-piperidin-1-yl]-methanone] yielded a melting point of 187.7 to 191.5 °C.
With COC[C@@H](NC(=O)c1sc(Nc2ccccc2OC)nc1C)c1ccccc1 [Compound 149, 2-(2-methoxy-phenylamino)-4-methyl-thiazole-5-carboxylic acid ((S)-2-methoxy-1-phenyl-ethyl)-amide] the melting point was 118.8 to 129.6 °C.
Compound COc1ccccc1Nc1ncc(C(=O)NCc2ccc(F)c(C(F)(F)F)c2)[nH]1 [Compound 226, 2-(2-methoxy-phenylamino)-3H-imidazole-4-carboxylic acid 4-fluoro-3-trifluoromethyl-benzylamide] has a melting point of 227.9 to 230 °C.
With Cc1nc(NC(=O)c2ccccc2)sc1C(=O)N[C@H]1CCC[C@@H]1OCc1ccccc1 [Compound 179, 2-benzoylamino-4-methyl-thiazole-5-carboxylic acid ((1S,2S)-2-benzyloxycyclopent-1-yl) amide] the melting point was 97.4 to 110.6 °C.
Work on COc1ccccc1Nc1nc(C)c(C(=O)N2CCCC2c2ccc(F)cc2)s1 (centres unmarked) [Compound 177, [2-(4-fluoro-phenyl)-pyrrolidin-1-yl]-[2-(2-methoxy-phenylamino)-4-methyl-thiazol-5-yl]-methanone] yielded a melting point of 94.4 to 106.6 °C.
In the case of COc1ccc(CNC(=O)c2oc(Nc3ccccc3OC)nc2C)c(OC)c1 [Compound 222, 2-(2-methoxy-phenylamino)-4-methyl-oxazole-5-carboxylic acid 2,4-dimethoxy-benzylamide], the melting point is reported as 68.7 to 82.4 °C.
COc1ccccc1Nc1nc(C)c(C(=O)N2CC=C(c3ccc(F)cc3)CC2)s1 [Compound 163, [4-(4-fluoro-phenyl)-3,6-dihydro-2H-pyridin-1-yl]-[2-(2-methoxy-phenylamino)-4-methyl-thiazol-5-yl]-methanone] showed a melting point of 144.4 to 149.2 °C.
With COc1ccccc1Nc1nc(C)c(C(=O)NCc2cccc(OC(F)(F)F)c2)s1 [Compound 158, 2-(2-methoxy-phenylamino)-4-methyl-thiazole-5-carboxylic acid 3-trifluoromethoxy-benzylamide] the melting point was 96.1 to 100.3 °C.
Cc1nc(NC(=O)c2ccc(C(N)=O)cc2)sc1C(=O)N[C@H]1CCC[C@@H]1OCc1ccccc1 [Compound 213, N-[5-((1S,2S)-2-benzyloxy-cyclopentylcarbamoyl)-4-methyl-thiazol-2-yl]-terephthalamide] showed a melting point of 213.8 to 218.9 °C.
